Test in all cases: growth of human tumour cells (NCI), 48 h
Experiment [1] has as its system HCT-15 colon.
Experiment [2] deals with HS 578T breast.
Experiment [3] concerns SK-OV-3 ovarian.
Experiment [4] deals with SNB-75 CNS.
Experiment [5] has as its system PC-3 prostate.
Experiment [6] concerns ACHN renal.
The subject of experiment [7] is UO-31 renal.
Experiment [8] has as its system UACC-62 melanoma.
Experiment [9] relates to M14 melanoma.
Experiment [10] deals with NCI-H522 lung.

Each structure is given as a SMILES string.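 Cells were grown in 96-well plates and exposed to each compound for 48 hours at five concentrations; endpoints were interpolated linearly between bracketing concentrations, or set to the highest concentration if not reached. GI50 is the concentration that inhibits growth by half. TGI marks complete inhibition of growth.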 Bounds are passed on as bounds.

Results on twelve compounds are retold here after PubChem BioAssay (NCI).

As for `C[C@H](N[C@H]1CCC[C@]1(O)C#Cc1ccc2c(c1)OCO2)c1ccccc1`, the TGI in [1], in [2], in experiment [3], in experiment [4], in experiment [5] and in experiment [6] was greater than 25 µM in each case. For the same compound, the TGI in experiment [7], in experiment [8] and in experiment [9] was greater than 25 µM in each case.

For `N#CCCOCN(CO)c1nc(N(CO)COCCC#N)nc(N(CO)COCCC#N)n1`, the TGI was 37.3 µM in [1]; greater than 100 µM in [3]; 76.1 µM in [6]; 43.2 µM in experiment [7]; 47.5 µM in experiment [10]; 45.1 µM in experiment [9].

`COc1cc2c(cc1OC)C1Cc3cc(OC)c(OC)cc3C(C2)O1`: the TGI in [3], in experiment [4], in [5], in [6], in [7] and in [8] was greater than 100 µM throughout. Besides, in [9], the TGI was greater than 100 µM.

For the compound `CCOC(=O)C(=O)Nc1c(CC)cccc1C(C)CC` (stereo unspecified), the TGI in experiment [1], in experiment [3], in experiment [4], in experiment [6], in experiment [7] and in experiment [10] was greater than 100 µM throughout. Further, the TGI in experiment [8] and in experiment [9] was greater than 100 µM each time.

As to `CCCC1=C(C(=O)OCC)C(c2ccccc2OC)C(C#N)=C(N)O1` (stereo unspecified), the GI50 in experiment [1] is 50.3 µM; in experiment [2], greater than 100 µM; in experiment [3], greater than 100 µM; in [4], 32.2 µM; in experiment [6], 48.1 µM; in [7], 37.5 µM. Moreover, the GI50 is 25.5 µM in experiment [10] and 34.2 µM in experiment [9]. Besides, the TGI in [1], in [2], in experiment [3], in experiment [4], in experiment [6] and in experiment [7] was greater than 100 µM in each case. Also, the TGI was 60.5 µM in experiment [10] and greater than 100 µM in [9].

`Cc1c2cc[n+](C)cc2c(C)c2c1[nH]c1ccc(Cl)cc12`: the TGI is greater than 100 µM in experiment [1]; 0.743 µM in experiment [2]; 53.3 µM in experiment [3]; 1.05 µM in [4]; greater than 43.2 µM in experiment [5]; 61.7 µM in experiment [6]. The TGI in experiment [7] came out at 42.8 µM; in [10] it was 2.38 µM; in [8] it was 45.1 µM; in experiment [9], 40.6 µM.

For `Nc1cccc2c1C1=NNC(=O)CC1C2` (stereo unspecified), the TGI in experiment [1], in experiment [3], in experiment [4], in [7], in experiment [10] and in experiment [8] was greater than 100 µM throughout.

`O=C(NCCNc1nccc(-c2c(-c3cccc(O)c3)nc3sccn23)n1)Nc1cccc(C(F)(F)F)c1`: the GI50 is 4.26 µM in experiment [1]; 3.56 µM in [2]; 2.5 µM in experiment [4]; 2.94 µM in [5]; 5.79 µM in experiment [6]; 3.25 µM in [7]. The GI50 was 2.11 µM in experiment [10], 1.94 µM in experiment [8] and 1.79 µM in experiment [9]. The TGI was 24.1 µM in experiment [1]; 17.8 µM in experiment [2]; 12.7 µM in [4]; 12.6 µM in experiment [5]; 45.7 µM in experiment [6]; 16.8 µM in experiment [7]. Besides, the TGI in experiment [10] was 5 µM; in [8], 6.51 µM; in experiment [9], 3.39 µM.

As for `COc1cc(NC(=O)CSc2nc3ccccc3c(=O)n2CCc2ccccc2)cc(OC)c1OC`, the GI50 was 3.52 µM in experiment [2]; 1.93 µM in experiment [3]; 2.23 µM in experiment [4]; 1.65 µM in experiment [10]; 5.49 µM in experiment [9]. In addition, the TGI in experiment [2] is greater than 100 µM; in [3], 3.69 µM; in [4], 11 µM; in [10], 4.2 µM; in [9] it was greater than 100 µM.

In the case of `O=C(Nc1cccc([N+](=O)[O-])c1)C(=O)C(C(=O)c1ccccc1F)C1OC(=O)C2C=CC=CC21` (stereo unspecified), the TGI in experiment [1] is greater than 100 µM; in experiment [3], greater than 100 µM; in experiment [4], 84.9 µM; in experiment [6] it was greater than 100 µM; in experiment [7] it was greater than 100 µM; in [10], 55.7 µM. Besides, the TGI in experiment [8] and in experiment [9] was greater than 100 µM throughout.

Turning to `c1ccc(CCN2CCOCC2)nc1`, the TGI in experiment [1], in experiment [2], in experiment [3], in [5], in experiment [6] and in experiment [7] was greater than 100 µM throughout. Further, the TGI in experiment [10], in experiment [8] and in [9] was greater than 100 µM in each case.

On to `NC(=O)Nc1ccc(C(=O)NCCCNC(=O)c2ccc(NC(N)=O)cc2)cc1`, for which the TGI in experiment [1], in [2], in experiment [4], in experiment [5], in experiment [6] and in [7] was greater than 100 µM throughout. In addition, the TGI in experiment [10], in experiment [8] and in experiment [9] was greater than 100 µM each time.
